Earlier results, collected in patent publication US20050026813A1, “Antibiotic-metal complexes in the detection of gram-positive bacteria and other biological analytes” (priority 2003, published 2005).

How the values were obtained:
[1] = tested on: anaerobes and gram-positive aerobes
[2] = tested on: Bacillus subtilis ATCC 6633
[3] = tested on: Streptococcus pyogenes CN10
gram-positive bacteria = settings: in words
[4] = tested on: Staphylococcus aureus SR14
S. aureus SR2030 = S. aureus SR2030 in mice, s.c.
[5] = tested on: subcutaneous and urinary tract infections
Strep pneumoniae = settings: systemic infections in mice
Streptococcus pyogenes = settings: systemic infections in mice
[6] = tested on: laboratory strains of aerobic and anaerobic gram-positive bacteria
Staphylococcus aureus = settings: systemic infections in mice
[7] = systemic infections in mice, Enterobacter faecalis
[8] = tested on: multi-drug resistant strains of Haemophilus influenzae and Moraxella catarrhalis
[9] = tested on: Staphylococcus aureus Oxford
Staphylococcus aureus 56 = settings: mice infected with Staphylococcus aureus 56
[10] = tested on: Enterococcus faecalis subsp. Liquifaciens S-299
[11] = tested on: Mycobacterium smegmatis ATCC 607
[12] = tested on: Staphylococcus aureus SG511
[13] = tested on: Streptococcus pyogenes 77A

For `COC(C)C(NC(=O)C1CCCN1C)C1OC(SC)C(O)C(O)C1O` (stereo not shown) [BU-2545, 7-O-methyl-4′-de-n-propyllincomycin], the antibacterial activity [1] is given as “exhibits antibacterial activity”.

In the case of `CCCCCCCCCC(=O)NC1C(O[C@@H]2c3cc(Cl)c(c(Cl)c3)Oc3cc4cc(c3OC3OC(CO)C(O)C(O)C3O)Oc3ccc(cc3Cl)[C@@H](O)[C@H]3NC(=O)[C@H](NC)c5ccc(O)c(c5)Oc5cc(O)c(Cl)c(c5)C(NC3=O)C(=O)NC4C(=O)N[C@H]3C(=O)N[C@@H]2C(O)N[C@H](C(=O)O)c2cc(O)cc(O)c2-c2cc3cc(Cl)c2OC2OC(CO)C(O)C(O)C2O)OC(C(=O)O)C(O)C1O` (stereo partly shown) [MM 55268], the MIC (Staph. aureus V573 MR) is listed as 1 microgram/ml, the MIC [2] is listed as 2 microgram/ml and the MIC [3] is listed as 0.25 microgram/ml. The MIC (Micrococcus luteus) was 2 microgram/ml.

In the case of `CNC(CC(C)C)C(=O)NC1C(=O)NC(CC(N)=O)C(=O)NCC2C(=O)NC3CC/C=C\C=C(\O)CCc4c(O)cc(O)cc4C(C(=O)O)NCC(=O)C(CC(OC4CC(C)(N)C(O)C(C)O4)CC/C=C\COC4=C(OC5OC(CO)C(O)C(O)C5OC5CC(C)(N)C(O)C(C)O5)C(=CC2C=C4)OC/C=C\CCC1O)NCC3=O` (stereo not shown) [PA-42867], the “activity against gram-positive bacteria” value (gram-positive bacteria) is given as “potent activity”, the MIC [4] is given as 0.78 microgram/ml and the ED50 (S. aureus SR2030) is given as 2.31 mg/kg.

In the case of `CN[C@H](CC(C)C)C(=O)N[C@H]1C(=O)N[C@@H](CC(N)=O)C(=O)N[C@H]2C(=O)NC3C(=O)N[C@@H](C[C@H](OC4C[C@@H](C)C(O)C(C)O4)c4ccc(c(Cl)c4)Oc4cc2cc(c4OC2OC(CO)C(O)C(O)C2O)OC2CC=C(C=C2Cl)C1O)C(=O)N[C@H](C(=O)O)c1cc(O)cc(O)c1-c1cc3ccc1O` (stereo partly shown) [S-3662], the therapeutic efficacy [5] is listed as “showed therapeutic efficacy”, the ED50 (Strep pneumoniae) is listed as 0.39 mg/kg and the ED50 (Streptococcus pyogenes) is listed as 0.49 mg/kg. The “activity compared with vancomycin” value [6] was “superior to vancomycin”, the ED50 (Staphylococcus aureus) was 2.63 mg/kg and the ED50 [7] was 0.95 mg/kg.

In the case of `C[C@@H]1CN(c2c(F)c(N)c3c(=O)c(C(=O)O)cn(C4CC4)c3c2F)C[C@H](C)N1` [sparfloxacin], the in vitro activity [8] is given as “highly active”.

In the case of `CN[C@H](CC(C)C)C(=O)N[C@H]1C(=O)N[C@@H](CC(N)=O)C(=O)N[C@H]2C(=O)N[C@H]3C(=O)N[C@H](C(=O)N[C@H](C(=O)O)c4cc(O)cc(O)c4-c4cc3ccc4O)[C@H](O)c3ccc(c(Cl)c3)Oc3cc2cc(c3O[C@@H]2O[C@H](CO)[C@@H](O)[C@H](O)[C@H]2O[C@H]2C[C@](C)(N)[C@H](O)[C@H](C)O2)Oc2ccc(cc2Cl)[C@H]1O` [vancomycin], the MIC (Staph. aureus V573 MR) is given as 2 microgram/ml, the MIC [9] is given as 2 microgram/ml and the MIC [2] is given as 0.25 microgram/ml. The MIC [3] was 1 microgram/ml, the MIC (Micrococcus luteus) was 2 microgram/ml and the MIC (Strep. faecalis I) was 2 microgram/ml.

In the case of “avoparcin alpha, 49-chloro-4B,50-di-O-alpha-D-mannopyranosyl- [Galacardin A]”, the MIC (S. aureus Sank 70175) is given as 6.25 microgram/ml, the “in vivo efficacy (ED50)” value (Staphylococcus aureus 56) is given as 19.0 mg/kg and the MIC [10] is given as 6.25 microgram/ml. The MIC [11] was 25.0 microgram/ml.

For des-methyl-balhimycin, the MIC (S. aureus 285) is given as 0.1 microgram/ml, the MIC (S. aureus 503) is given as 0.05 microgram/ml and the MIC [12] is given as 0.1 microgram/ml. For the same compound, the MIC [13] was 0.05 microgram/ml.

For “vancomycin,22-O-(3-amino-2,3,6-trideoxy-3-C-methyl-alpha-D-arabino-hexopyranosyl)-2′-O-de(3-amino-2,3,6-trideoxy-3-C-methyl-alpha-L-lyxoyranosyl)-10,19-didechloro-2′-O-(6-deoxy-alpha-D-talopyranosyl)- [MM-49721]”, the MIC (Bacillus subtilis) is given as 2 microgram/ml and the “activity against gram-positive bacteria” value (gram-positive bacteria) is given as “good activity”.
